Among the data in patent EP4559908A1, “HETEROARYL DERIVATIVE COMPOUND AND USE THEREOF” (S2CBio Inc., priority 2022, dated 2024) are inhibition values, retold here.

This test addresses T1, human ANO6 (variant 5) (Homo sapiens, UniProt Q4KMQ2).
T1 construct: expressed in transfected cells; host or cells: Fischer rat thyroid (FRT) cells
T1 sequence (Q4KMQ2 1-931 isoform Q4KMQ2-2): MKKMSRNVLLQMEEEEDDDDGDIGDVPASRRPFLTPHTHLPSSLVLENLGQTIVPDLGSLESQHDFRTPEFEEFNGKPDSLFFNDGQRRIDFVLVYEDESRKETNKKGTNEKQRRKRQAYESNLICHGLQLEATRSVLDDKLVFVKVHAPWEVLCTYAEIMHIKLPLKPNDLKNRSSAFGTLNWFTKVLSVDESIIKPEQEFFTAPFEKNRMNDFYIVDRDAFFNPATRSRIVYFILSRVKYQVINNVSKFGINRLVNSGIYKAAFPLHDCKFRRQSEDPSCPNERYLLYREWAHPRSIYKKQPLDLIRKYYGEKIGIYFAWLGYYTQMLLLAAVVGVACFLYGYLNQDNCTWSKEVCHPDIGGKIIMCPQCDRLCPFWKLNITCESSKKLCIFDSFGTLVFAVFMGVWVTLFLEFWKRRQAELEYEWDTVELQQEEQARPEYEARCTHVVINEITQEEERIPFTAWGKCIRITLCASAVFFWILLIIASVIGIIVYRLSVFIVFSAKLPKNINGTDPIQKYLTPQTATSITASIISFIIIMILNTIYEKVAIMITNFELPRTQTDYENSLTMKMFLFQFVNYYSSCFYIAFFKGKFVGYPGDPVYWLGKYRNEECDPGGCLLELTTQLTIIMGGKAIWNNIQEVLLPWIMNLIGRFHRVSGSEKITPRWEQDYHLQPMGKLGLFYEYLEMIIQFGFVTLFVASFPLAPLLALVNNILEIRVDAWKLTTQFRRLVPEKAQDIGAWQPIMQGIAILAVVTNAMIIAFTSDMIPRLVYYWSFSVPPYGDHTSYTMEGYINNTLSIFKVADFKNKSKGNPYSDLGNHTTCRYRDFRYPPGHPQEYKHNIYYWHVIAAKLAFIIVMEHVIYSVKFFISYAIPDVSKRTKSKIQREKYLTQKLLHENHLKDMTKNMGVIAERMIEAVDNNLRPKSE
Briefly: Lact C2 assay (measuring phosphatidylserine externalization scramblase function). In kind it is cell-based. The note with it: FRT, FRT cells expressing human ANO6 (variant 5), ionomycin 10 µM, Lact-C2-GFP fluorescence, average of three tests; for inhibition at 1 µM: compound 1 µM, read-out: % Inhibition 1 µM; for inhibition at 0.05 µM: compound 50 nM, read-out: % Inhibition 50 nM; for inhibition at 0.1 µM: compound 100 nM. How it is done: Ionomycin (Alomonelab, cat. # I-700), DAPI (Sigma- Aldrich, cat. # D8417), paraformaldehyde (Biosesang, cat. #P2031), Lionheart FX automated fluorescence microscope (BioTek), Gen5™ software program (BioTek), and Image J analysis software program.
After the incubation, the cells were treated with compounds dissolved in DMSO to 1% v/v in each well at each concentration (50 nM, 100 nM, and 1 µM) and reacted for 10 minutes. Thereafter, each well was treated with ionomycin to a final concentration of 10 µM, allowed to react for 10 minutes, and then washed with 200 µL PBS. After washing, each well was treated with 50 µL of Lactadherin-C2 (Lact-C2)-GFP mixed in DMEM medium to a final concentration of 500 nM to stain phosphatidylserine, and cultured at 37°C for 10 minutes. After completion of the reaction, the cells were washed with 200 µL PBS, and fixed with 4% paraformaldehyde for 5 minutes at room temperature. For morphological analysis, DAPI solution was added, and the cells were incubated for 15 minutes, followed by washing with PBS. The fluorescence intensity of Lact-C2-GFP bound to phosphatidylserine on the cell surface was measured using an automated fluorescence microscope. For quantitative analysis of the fluorescence intensity of Lact-C2-GFP, BioTek Gen5™ software and Image J analysis software programs were used.
Phosphatidylserine externalization inhibitory activity (%) by the compound was calculated through the following analysis method. Specifically, the background fluorescence value was subtracted from the measured Lact-C2-GFP fluorescence value, and the fluorescence value of the ionomycin non-treatment group and the ionomycin-treatment group in the same row where each test group was located in a 96-well microplate were calculated. In order to calculate the inhibitory activity (%) by the compound, the relative inhibitory activity was calculated by setting the compound and ionomycin non-treatment group to 100% inhibitory activity and the ionomycin alone treatment group to 0% inhibitory activity.

For orientation: inhibition means how much of the control response was suppressed.

Consider `CN(C)CCOc1ccc(-c2nc3ccc(C(F)(F)F)cc3[nH]2)cc1Nc1ccc(-c2cnccn2)cc1` [Example 174, 2-[2-(dimethylamino)ethoxy]-N-(4-pyrazin-2-ylphenyl)-5-[6-(trifluoromethyl)-1H-benzo[d]imidazol-2-yl]aniline], for which the inhibition at 1 µM fell in the range of 30 to 60%.
`FC(F)(F)c1ccc2nc(-c3cccc(Nc4ccc(-c5ncccn5)cc4)c3)[nH]c2c1` [Example 27, N-[4-(pyrimidin-2-yl)phenyl]-3-[6-(trifluoromethyl)-1H-benzo[d]imidazol-2-yl]aniline]: the inhibition at 0.05 µM was over 60%, the inhibition at 0.1 µM was over 60% and the inhibition at 1 µM was over 60%.
On to `FC(F)(F)c1ccc2nc(-c3cccc(Nc4ccc(-c5ccccn5)cc4)c3)[nH]c2c1` [Example 98, N-[4-(2-pyridyl)phenyl]-3-[6-(trifluoromethyl)-1H-benzo[d]imidazol-2-yl]aniline], for which the inhibition at 0.05 µM was over 60% and the inhibition at 1 µM was over 60%.
Take `FC(F)(F)c1cc2[nH]c(-c3cccc(Nc4ncc(-c5cccnn5)cn4)c3)nc2cn1` [Example 103, 5-pyridazin-3-yl-N-[3-[6-(trifluoromethyl)-1H-imidazo[4,5-c]pyridin-2-yl]phenyl]pyrimidin-2-amine]: the inhibition at 1 µM is over 60%.
With `Cc1cc(-c2cccnn2)ccc1Nc1cccc(-c2nc3ccccc3[nH]2)c1` [Example 203, N-(3-(1H-benzo[d]imidazol-2-yl)phenyl)-2-methyl-4-(pyridazin-3-yl)aniline], the inhibition at 0.05 µM was in the range of 30 to 60% and the inhibition at 1 µM was over 60%.
For the molecule `FC(F)(F)c1ccc2nc(-c3cncc(Nc4ncc(-c5ccccn5)cn4)c3)[nH]c2c1` [Example 307, 5-(pyridin-2-yl)-N-(5-(6-(trifluoromethyl)-1H-benzo[d]imidazol-2-yl)pyridin-3-yl)pyrimidin-2-amine], the inhibition at 1 µM lay within 30 to 60%.
Still for that read-out and setting: as for `Fc1cccc2nc(-c3cccc(Nc4ncc(-c5cccnn5)cn4)c3)[nH]c12` [Example 290, N-(3-(7-fluoro-1H-benzo[d]imidazol-2-yl)phenyl)-5-(pyridazin-3-yl)pyrimidin-2-amine], the figure is 30 to 60%.
For the molecule `FC(F)(F)c1cc2[nH]c(-c3cccc(Nc4ccc(-c5cccnn5)cn4)c3)nc2cn1` [Example 254, 5-(pyridazin-3-yl)-N-(3-(6-(trifluoromethyl)-1H-imidazo[4,5-c]pyridin-2-yl)phenyl)pyridin-2-amine], the inhibition at 0.05 µM is over 60% and the inhibition at 1 µM was over 60%.
`FC(F)(F)Oc1cc2nc(-c3cccc(Nc4ccc(-c5ccccc5)nn4)c3)[nH]c2cc1Cl` [Example 10, N-{3-[6-chloro-5-(trifluoromethoxy)-1H-benzo[d]imidazol-2-yl]phenyl}-6-phenylpyridazin-3-amine]: the inhibition at 0.05 µM is over 60%, the inhibition at 0.1 µM is over 60% and the inhibition at 1 µM is over 60%.
Turning to `FC(F)(F)c1cnc2nc(-c3cccc(Nc4ncc(-c5ccccn5)cn4)c3)[nH]c2c1` [Example 243, 5-(pyridin-2-yl)-N-(3-(6-(trifluoromethyl)-1H-imidazo[4,5-b]pyridin-2-yl)phenyl)pyrimidin-2-amine], the inhibition at 0.05 µM fell in the range of 30 to 60% and the inhibition at 1 µM was over 60%.
For `c1cc(Nc2ccc(-c3ccncn3)cc2)cc(-c2nc3ccccc3[nH]2)c1` [Example 22, N-[3-(1H-benzo[d]imidazol-2-yl)phenyl]-4-(pyrimidin-4-yl)aniline], the inhibition at 0.05 µM was over 60%, the inhibition at 0.1 µM was over 60% and the inhibition at 1 µM is over 60%.
Turning to `Cc1cscc1-c1cnc(Nc2cccc(-c3nc4ccccc4[nH]3)c2)nc1` [Example 43, N-(3-(1H-benzo[d]imidazol-2-yl)phenyl)-5-(4-methylthiophen-3-yl)pyrimidin-2-amine], the inhibition at 0.05 µM was over 60% and the inhibition at 0.1 µM is over 60%.
Turning to `FC(F)(F)c1ccc2nc(-c3cccc(Nc4ncc(-c5cccnn5)cn4)c3)[nH]c2c1` [Example 52, 5-(pyridazin-3-yl)-N-(3-(6-(trifluoromethyl)-1H-benzo[d]imidazol-2-yl)phenyl)pyrimidin-2-amine], the inhibition at 0.05 µM was over 60% and the inhibition at 0.1 µM was over 60%.
`FC(F)(F)c1ccc2nc(-c3cccc(Nc4ccc(-c5ncccn5)cn4)c3)[nH]c2c1` [Example 100, 5-pyrimidin-2-yl-N-[3-[6-(trifluoromethyl)-1H-benzo[d]imidazol-2-yl]phenyl]pyridin-2-amine]: the inhibition at 0.05 µM was over 60% and the inhibition at 1 µM is over 60%.
With `FC(F)Oc1ccc2nc(-c3cccc(Nc4ncc(-c5ccccn5)cn4)c3)[nH]c2c1` [Example 285, N-(3-(6-(difluoromethoxy)-1H-benzo[d]imidazol-2-yl)phenyl)-5-(pyridin-2-yl)pyrimidin-2-amine], the inhibition at 0.05 µM is over 60% and the inhibition at 1 µM was over 60%.
Turning to `Cc1cccc2nc(-c3cccc(Nc4ccc(-c5cccnn5)cc4)c3)[nH]c12` [Example 101, 3-(7-methyl-1H-benzo[d]imidazol-2-yl)-N-(4-pyridazin-3-ylphenyl)aniline], the inhibition at 0.05 µM is over 60% and the inhibition at 1 µM is over 60%.
For `COC(=O)c1ccc2nc(-c3cccc(Nc4ccc(-c5cccnn5)cc4)c3)[nH]c2c1` [Example 61, methyl 2-(3-((4-(pyridazin-3-yl)phenyl)amino)phenyl)-1H-benzo[d]imidazol-6-carboxylate], the inhibition at 0.05 µM was over 60% and the inhibition at 0.1 µM is over 60%.
For the molecule `c1ccc(CNc2ccc3nc(-c4cccc(Nc5ccc(-c6cccnn6)cc5)c4)[nH]c3c2)cc1` [Example 229, N-benzyl-2-(3-((4-(pyridazin-3-yl)phenyl)amino)phenyl)-1H-benzo[d]imidazol-6-amine], the inhibition at 1 µM is over 60%.
`Brc1ccc2nc(-c3cccc(Nc4ccc(-c5cccnn5)cc4)c3)[nH]c2c1` [Example 308, 3-(6-bromo-1H-benzo[d]imidazol-2-yl)-N-(4-(pyridazin-3-yl)phenyl)aniline]: the inhibition at 0.05 µM was over 60% and the inhibition at 1 µM was over 60%.
Turning to `Cc1cc2nc(-c3cccc(Nc4ccc(-c5cccnn5)cc4)c3)[nH]c2cc1F` [Example 114, 3-(6-fluoro-5-methyl-1H-benzo[d]imidazol-2-yl)-N-(4-pyridazin-3-ylphenyl)aniline], the inhibition at 0.05 µM was 30 to 60% and the inhibition at 1 µM was over 60%.
Taken in the same sequence, the figures for `Fc1cc2nc(-c3cccc(Nc4ncc(-c5cccnn5)cn4)c3)[nH]c2cc1F` [Example 99, N-[3-(5,6-difluoro-1H-benzo[d]imidazol-2-yl)phenyl]-5-pyridazin-3-yl-pyrimidin-2-amine] were 30 to 60% and over 60%.
In the case of `Fc1cc(Br)c2[nH]c(-c3cccc(Nc4ccc(-c5ccccc5)nn4)c3)nc2c1` [Example 11, N-(3-(7-bromo-5-fluoro-1H-benzo[d]imidazol-2-yl)phenyl)-6-phenylpyridazin-3-amine], the inhibition at 0.1 µM fell in the range of 30 to 60% and the inhibition at 1 µM was over 60%.
